Assays:
ALK(G1202R/L1196M) = molecular target: T1, ALK(G1202R/L1196M) (Homo sapiens, UniProt Q9UM73, G1202R/L1196M); test: In vitro kinase inhibitory activity assay, Experimental method 2 (ADP-Glo); type: biochemical; conditions: Experimental method 2; ATP 5.0 µM, substrate IGF1; read-out: Kinase half maximal inhibitory concentration IC50 ALK^G1202R/L1196M
T1 construct: purchased Carna

TRKB = molecular target: T2, TRKB (Homo sapiens, UniProt Q16620); test: as above; type: biochemical; conditions: Experimental method 2; ATP 5.0 µM, substrate PolyE4Y1; read-out: Kinase half maximal inhibitory concentration IC50 TRKB
T2 construct: purchased Carna

CYP1A2 = molecular target: T3, CYP1A2 (Homo sapiens, UniProt P05177); test: Cytochrome P450 isozyme inhibitory activity test (human liver microsomes); type: in vitro ADME; conditions: human liver microsomes 0.1 mg/mL
T3 construct: Mixed human liver microsomes (HLM) purchased from Corning Inc; tissue Corning Inc; host or cells: pooled human liver microsomes
T3 sequence (P05177 1-516): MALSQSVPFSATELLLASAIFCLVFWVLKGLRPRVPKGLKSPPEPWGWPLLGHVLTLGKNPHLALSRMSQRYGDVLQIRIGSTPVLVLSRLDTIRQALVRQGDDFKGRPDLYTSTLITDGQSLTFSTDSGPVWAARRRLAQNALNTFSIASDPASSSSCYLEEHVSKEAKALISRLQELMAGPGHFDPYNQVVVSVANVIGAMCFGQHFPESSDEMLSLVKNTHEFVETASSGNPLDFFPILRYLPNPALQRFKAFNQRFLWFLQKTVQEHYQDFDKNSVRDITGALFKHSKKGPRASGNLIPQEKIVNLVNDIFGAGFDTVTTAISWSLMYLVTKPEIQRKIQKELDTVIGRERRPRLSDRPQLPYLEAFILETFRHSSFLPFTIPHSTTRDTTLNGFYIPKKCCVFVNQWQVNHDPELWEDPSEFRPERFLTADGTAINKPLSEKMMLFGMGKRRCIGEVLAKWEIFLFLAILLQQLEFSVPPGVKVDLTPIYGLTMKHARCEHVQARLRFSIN

CYP2C9 = molecular target: T4, CYP2C9 (Homo sapiens, UniProt P11712); test: as above; type: in vitro ADME; conditions: human liver microsomes 0.1 mg/mL; probe substrate Diclofenac
T4 construct: Mixed human liver microsomes (HLM) purchased from Corning Inc; tissue Corning Inc; host or cells: pooled human liver microsomes
Method: To test the inhibitory activity of the compounds of the present disclosure on different subtypes of human liver microsomal cytochrome P450 isozymes.
Mixed human liver microsomes (HLM) purchased from Corning Inc. (Steuben, New York, USA); Diclofenac as the probe substrate (10 µM); Sulfaphenazole as the positive control inhibitor; 4'-Hydroxydiclofenac as the metabolite
Preparation of test system working solution: Human liver microsomes (HLM): HLM stock solution at 20.0 mg/mL, working solution at 0.2 mg/mL, final concentration at 0.1 mg/mL; Potassium phosphate buffer: 100 mM; Cofactor working solution: Magnesium chloride, NADP (nicotinamide adenine dinucleotide phosphate), G6P (glucose-6-phosphate), G6PDH (glucose-6-phosphate dehydrogenase), and phosphate buffer or magnesium chloride, NADPH (reduced nicotinamide adenine dinucleotide phosphate) powder, and potassium phosphate buffer; prepared into cofactor working solution at appropriate ratios;
Stop solution: Isotope-labeled 4'-hydroxydiclofenac-d4 stock solution prepared in methanol, then prepared into stop solution using acetonitrile.
In the substrate-free control sample wells of the reaction plate, 100 µL of a mixture of human liver microsome and potassium phosphate buffer was added. At the zero-time point sample wells, 98 µL of a mixture of the human liver microsome and potassium phosphate buffer was added. In the no-inhibitor control (NIC), test compound, and positive control inhibitor sample wells of the reaction plate, 100 µL of a mixture of the human liver microsome and substrate was added. From the dilution plate, 2 µL of blank solvent, test compound working solution (three parallels), and positive control inhibitor working solution (two parallels) were added to the reaction plate. The reaction plate was preheated at 37.0°C for 10 minutes. […] The concentration of specific metabolites in the samples was detected using the liquid chromatography-tandem mass spectrometry (LC-MS/MS) method. […] The IC50 values were calculated using a three-parameter or four-parameter inverse log equation.

CYP2C19 = molecular target: T5, CYP2C19 (Homo sapiens, UniProt P33261); test: as above; type: in vitro ADME; conditions: human liver microsomes 0.1 mg/mL
T5 construct: Mixed human liver microsomes (HLM) purchased from Corning Inc; tissue Corning Inc; host or cells: pooled human liver microsomes

CYP2D6 = molecular target: T6, CYP2D6 (Homo sapiens, UniProt P10635); test: as above; type: in vitro ADME; conditions: human liver microsomes 0.1 mg/mL
T6 construct: Mixed human liver microsomes (HLM) purchased from Corning Inc; tissue Corning Inc; host or cells: pooled human liver microsomes
T6 sequence (P10635 whole entry): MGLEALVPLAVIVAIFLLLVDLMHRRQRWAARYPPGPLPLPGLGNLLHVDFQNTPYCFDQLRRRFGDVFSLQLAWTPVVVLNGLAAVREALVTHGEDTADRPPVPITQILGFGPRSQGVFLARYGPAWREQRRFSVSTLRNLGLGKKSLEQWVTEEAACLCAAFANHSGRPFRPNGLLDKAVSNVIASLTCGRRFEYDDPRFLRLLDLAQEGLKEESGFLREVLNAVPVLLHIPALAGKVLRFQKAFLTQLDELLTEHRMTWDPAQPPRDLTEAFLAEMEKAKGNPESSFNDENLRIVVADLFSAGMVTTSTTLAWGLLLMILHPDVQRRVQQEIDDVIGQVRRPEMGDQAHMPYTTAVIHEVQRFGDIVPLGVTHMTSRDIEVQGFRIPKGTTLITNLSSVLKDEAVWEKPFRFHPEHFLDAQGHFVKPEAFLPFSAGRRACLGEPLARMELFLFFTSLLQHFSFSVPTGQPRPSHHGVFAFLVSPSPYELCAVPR

T2 sequence (Q16620 32-822): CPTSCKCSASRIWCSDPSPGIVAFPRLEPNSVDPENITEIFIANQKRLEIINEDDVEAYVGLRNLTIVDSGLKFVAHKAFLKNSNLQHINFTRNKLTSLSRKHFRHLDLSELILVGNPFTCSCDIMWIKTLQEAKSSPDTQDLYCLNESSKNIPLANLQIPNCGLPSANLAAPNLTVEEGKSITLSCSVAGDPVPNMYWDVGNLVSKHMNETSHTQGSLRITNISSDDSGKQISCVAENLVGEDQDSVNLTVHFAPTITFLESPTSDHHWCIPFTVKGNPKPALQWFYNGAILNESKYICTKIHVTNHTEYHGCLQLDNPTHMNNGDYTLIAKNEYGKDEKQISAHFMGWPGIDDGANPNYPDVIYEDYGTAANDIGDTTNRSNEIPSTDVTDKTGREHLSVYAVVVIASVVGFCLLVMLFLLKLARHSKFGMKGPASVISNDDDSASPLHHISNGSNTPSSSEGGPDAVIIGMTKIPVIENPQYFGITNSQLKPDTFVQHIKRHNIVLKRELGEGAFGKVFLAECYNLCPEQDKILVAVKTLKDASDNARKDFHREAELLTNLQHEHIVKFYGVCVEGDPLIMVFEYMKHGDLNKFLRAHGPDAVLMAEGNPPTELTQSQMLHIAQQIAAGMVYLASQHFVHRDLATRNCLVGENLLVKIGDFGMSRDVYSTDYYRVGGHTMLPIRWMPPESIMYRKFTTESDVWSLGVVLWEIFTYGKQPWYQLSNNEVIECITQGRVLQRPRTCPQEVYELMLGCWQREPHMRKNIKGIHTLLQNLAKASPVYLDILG
T5 sequence (P33261 whole entry): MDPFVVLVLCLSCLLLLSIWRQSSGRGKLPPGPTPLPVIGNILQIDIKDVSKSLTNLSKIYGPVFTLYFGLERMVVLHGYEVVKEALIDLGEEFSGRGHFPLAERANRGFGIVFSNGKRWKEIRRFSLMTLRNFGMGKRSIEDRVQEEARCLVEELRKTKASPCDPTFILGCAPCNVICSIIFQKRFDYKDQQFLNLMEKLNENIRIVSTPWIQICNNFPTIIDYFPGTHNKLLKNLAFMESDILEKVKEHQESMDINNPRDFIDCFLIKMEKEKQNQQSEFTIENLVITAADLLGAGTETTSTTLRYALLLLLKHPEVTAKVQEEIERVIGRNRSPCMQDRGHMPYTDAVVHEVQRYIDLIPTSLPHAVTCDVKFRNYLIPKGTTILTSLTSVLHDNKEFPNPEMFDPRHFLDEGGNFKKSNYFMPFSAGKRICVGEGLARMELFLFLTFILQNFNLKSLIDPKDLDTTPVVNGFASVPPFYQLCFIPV
T1 sequence (Q9UM73 19-1620 L1196M/G1202R): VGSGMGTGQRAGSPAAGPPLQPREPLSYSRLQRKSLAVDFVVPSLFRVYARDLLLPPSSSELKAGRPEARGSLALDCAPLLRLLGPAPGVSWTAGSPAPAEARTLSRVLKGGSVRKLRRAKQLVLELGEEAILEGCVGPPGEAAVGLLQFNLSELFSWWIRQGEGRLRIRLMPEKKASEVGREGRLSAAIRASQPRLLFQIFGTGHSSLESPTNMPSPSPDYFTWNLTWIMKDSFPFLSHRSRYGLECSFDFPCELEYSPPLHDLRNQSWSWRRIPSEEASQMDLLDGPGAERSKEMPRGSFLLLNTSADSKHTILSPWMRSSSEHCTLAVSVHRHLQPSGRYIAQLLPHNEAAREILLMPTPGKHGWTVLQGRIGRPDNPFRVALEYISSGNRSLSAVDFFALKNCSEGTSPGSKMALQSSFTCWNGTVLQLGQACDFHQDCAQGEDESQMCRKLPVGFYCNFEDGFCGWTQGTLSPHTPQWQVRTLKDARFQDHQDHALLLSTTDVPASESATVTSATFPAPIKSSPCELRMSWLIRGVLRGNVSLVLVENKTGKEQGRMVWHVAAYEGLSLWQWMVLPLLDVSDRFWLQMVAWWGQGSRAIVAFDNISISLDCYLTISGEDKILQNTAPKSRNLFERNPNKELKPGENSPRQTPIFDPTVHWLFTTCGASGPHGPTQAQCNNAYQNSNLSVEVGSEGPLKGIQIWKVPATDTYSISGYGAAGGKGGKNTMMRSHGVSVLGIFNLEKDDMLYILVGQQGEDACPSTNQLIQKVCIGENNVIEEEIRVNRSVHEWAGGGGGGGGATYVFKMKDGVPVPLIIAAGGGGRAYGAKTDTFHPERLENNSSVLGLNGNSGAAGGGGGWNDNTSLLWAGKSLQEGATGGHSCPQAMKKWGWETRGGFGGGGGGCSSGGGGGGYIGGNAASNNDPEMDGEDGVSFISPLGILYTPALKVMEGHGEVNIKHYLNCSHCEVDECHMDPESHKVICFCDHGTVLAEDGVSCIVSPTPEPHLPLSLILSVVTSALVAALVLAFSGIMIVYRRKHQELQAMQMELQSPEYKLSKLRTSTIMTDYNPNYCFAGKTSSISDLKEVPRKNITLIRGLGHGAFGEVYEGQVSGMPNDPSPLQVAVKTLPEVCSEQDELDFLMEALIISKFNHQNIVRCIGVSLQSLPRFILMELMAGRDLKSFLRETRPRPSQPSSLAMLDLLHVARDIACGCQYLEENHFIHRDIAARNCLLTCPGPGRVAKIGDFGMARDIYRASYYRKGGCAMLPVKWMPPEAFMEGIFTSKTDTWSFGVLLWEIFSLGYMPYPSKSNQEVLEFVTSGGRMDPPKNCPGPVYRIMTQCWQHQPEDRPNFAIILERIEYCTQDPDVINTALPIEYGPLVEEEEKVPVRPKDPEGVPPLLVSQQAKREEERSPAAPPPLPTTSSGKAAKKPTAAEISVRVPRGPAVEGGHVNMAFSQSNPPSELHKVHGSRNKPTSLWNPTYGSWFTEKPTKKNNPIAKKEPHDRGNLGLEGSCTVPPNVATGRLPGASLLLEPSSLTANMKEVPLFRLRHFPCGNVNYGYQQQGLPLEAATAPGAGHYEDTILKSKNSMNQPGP
T4 sequence (P11712 whole entry): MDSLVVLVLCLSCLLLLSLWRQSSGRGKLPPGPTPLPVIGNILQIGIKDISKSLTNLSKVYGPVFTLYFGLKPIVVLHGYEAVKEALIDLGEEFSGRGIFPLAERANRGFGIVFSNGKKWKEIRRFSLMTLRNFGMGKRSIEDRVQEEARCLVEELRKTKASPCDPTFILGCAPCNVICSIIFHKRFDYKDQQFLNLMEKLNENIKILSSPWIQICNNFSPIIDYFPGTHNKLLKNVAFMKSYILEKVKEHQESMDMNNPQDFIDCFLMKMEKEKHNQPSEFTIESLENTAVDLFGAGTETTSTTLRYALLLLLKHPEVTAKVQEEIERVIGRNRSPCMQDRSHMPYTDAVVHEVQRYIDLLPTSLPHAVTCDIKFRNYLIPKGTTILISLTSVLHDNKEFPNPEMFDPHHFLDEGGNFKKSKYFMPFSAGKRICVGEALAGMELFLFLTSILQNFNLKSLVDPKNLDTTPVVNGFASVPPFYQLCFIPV

For `Cc1nn2cc3c4nc2c1C(=O)NC1(CC1)COc1ccc(F)cc1CN4[C@H](C(F)F)CO3` [Compound 016], the IC50 (ALK(G1202R/L1196M)) was 0.0009 µM, the IC50 (TRKB) was 0.0003 µM and the IC50 (CYP1A2) was greater than 50 µM. It also gave an IC50 (CYP2C9) of 3.12 µM, an IC50 (CYP2C19) of 22.7 µM and an IC50 (CYP2D6) greater than 50 µM.

Source: patent publication EP4559919A1, “TRICYCLIC-CONTAINING MACROCYCLIC COMPOUND AND USE THEREOF” (Medshine Discovery Inc., priority 2022, dated 2024)
